Assay results: patent publication US9687480B2, “Chiral 1-(4-methylphenylmethyl)-5-oxo-{N-[(3-t-butoxycarbonyl-aminomethyl)]-piperidin-1-yl)-pyrrolidine as inhibitors of collagen induced platelet activation and adhesion” (Council of Scientific & Industrial Research, priority 2011, dated 2017)

Key:
[1] = test system: mouse platelets; assay: Platelet adhesion over collagen matrix (mice, ex vivo); format: in vivo; details: oral route, compound 6 10, 30, 100 μM/kg, aspirin 100 μM/kg
Description: FIG. 4b: Adhesion of mouse platelets on collagen matrix as observed under fluorescence microscope 40× (ex vivo method). Different pictures show the different treatment performed. Washed murine platelets (2×10^6/ml) were obtained from animals pretreated with the compound (compound 6) (different doses) and seeded on BSA or Collagen (fibrillar) coated cover slips (A, B). Platelets from untreated animals were allowed to adhere on uncoated and BSA coated cover slip respectively to delineate the possibility of non specific binding. C, D. control platelets were adhered on collagen coated cover slip (control). E. F&G. Platelets obtained from animals pre-treated with compound 6 (10 μM/kg, 30 μM/kg & 100 μM/kg) respectively were adhered on collagen coated cover slip. H, I. Platelets from Aspirin (100 μM/kg) & Clopidogrel treated (100 μM/kg) animals resp. (standard Drugs) and adhered on collagen coated cover slip (n=5, 5 animals/group/experiment).

[2] = test system: hamster whole blood (ADP 10 μM); assay: Whole blood aggregation in hyperlipidemic hamsters (ex vivo), ADP induced; details: HCHF hamsters ex vivo, aspirin 100 μM/kg, clopidogrel 30 μM/kg
[3] = test system: hyperlipidemic hamsters; assay: FeCl3 induced thrombosis in hyperlipidemic hamsters; format: in vivo; details: HCHF fed hamsters
Protocol: (§1) HCHF treated hamsters were anesthetized by urethane (1.25 g/kg, i.p.). The carotid artery was carefully dissected and a pulsed Doppler Probe (DBF-120A-CPx, CBI-8000, Crystal Biotech. USA) was placed around it to record the blood flow velocity and potency of the blood vessels. The carotid artery thrombosis was induced by FeCl3 as follows: a square (1×1 mm) of Whatman Chromatography paper was immersed in 30% FeCl3 solution for 5 min and placed on the carotid artery as described earlier (Kurz K D, Main B W, Sandusky G E. Rat model of arterial thrombosis induced by ferric chloride. Thromb Res 1990; 60(4):269-80). Thrombosis was monitored as the reduction in carotid artery blood flow. The time at which the blood-flow velocity was decreased to zero was recorded as the total of occlusion of the vessel.

[4] = test system: hamster whole blood (Collagen 2.5 μg/ml); assay: Whole blood aggregation in hyperlipidemic hamsters (ex vivo), collagen induced; details: HCHF hamsters ex vivo, aspirin 100 μM/kg, clopidogrel 30 μM/kg
[5] = test system: rats; assay: FeCl3 induced carotid artery thrombosis in rats; format: in vivo; details: rats; compound 1 at the same dose as compound 6; aspirin at a very high dose
Protocol: as §1, with “Male SD rats” for “HCHF treated hamsters”, “Biotech,” for “Biotech.”, “patency” for “potency”, “20%” for “30%”, “occlusion (TTO)” for “occlusion”, “carotid artery. […] (Ferric Chloride induced thrombosis (FIG. 7))” for “vessel.”

[6] = test system: hamster whole blood (Thrombin 1 U/ml); assay: Whole blood aggregation in hyperlipidemic hamsters (ex vivo), thrombin induced; details: HCHF hamsters ex vivo; aspirin 100 μM/kg, clopidogrel 30 μM/kg
[7] = test system: hamster platelets; assay: Platelet adhesion on collagen coated surface (hyperlipidemic hamster model, ex vivo); format: in vivo, hamsters; details: hyperlipidemic hamsters, ex vivo
Protocol: Platelet adhesion to collagen was measured in polystyrene 96-well micro titer plates. Micro titer plates were coated with insoluble equine tendon native fibrillar type I collagen (Chrono-Log Corp. Havertown, USA), 2 μg/well in 5 mM acetic acid (Tandon N N, Ockenhouse C F, Greco […]. Adhesive functions of platelet lacking GPIV (CD36). Blood 1991; 78: 2809-13) overnight at 4° C. The unoccupied protein binding sites on the wells were blocked with 0.5% BSA in Tyrode's-HEPES buffer (136.7 mM NaCl, 13.8 mM NaHCO3. 0.36 mM NaH2PO4.H2O, 2.6 mM KCl, 1.0 mM MgCl2.6H2O, 5.5 mM glucose, pH 7.4) at room temperature for 1 hour, and then rinsed once with PBS. Washed platelets were suspended in the Tyrode's-HEPES buffer and added to the wells (2×10^7 cells/well) for 1 h at room temperature. After three washes with PBS, the number of adherent platelets was evaluated colorimetrically (Bellavite P., Andrioli G., Gizzo P., Arigliano P., Chirumbolo […] colorimetric method for the measurement of platelet adhesion in microtiter plates. Anal. Blochem. 1994; 216:444-450). Briefly, 150 μl of a 0.1 M citrate buffer (pH 5.4), containing 5 mM p-nitrophenyl phosphate and 0.1% TritonX-100 was added to the wells after washing. After incubation for 30 minutes at 25° C. in the absence of ambient light, colour was developed by the addition of 100 μl of 2N NaOH and the absorbance at 405 nm was read using a microplate reader (Powerware XS, Biotek, USA).

[8] = test system: hyperlipidemic hamsters; assay: Arterio-venous shunt model in hyperlipidemic hamsters; format: in vivo; details: hyperlipidemic hamsters; compound 6 at 10 μM/kg
[9] = test system: mice; assay: Tail bleeding time in mice; format: in vivo; details: aspirin 170 μM/kg, clopidogrel 30 μM/kg
Protocol: Bleeding time in mice was evaluated by the method of Dejana et al, (Dejana E, Callioni A, Quintana A, Gaetano G. Bleeding time in laboratory animals. II—A comparison of different assay conditions in rats. […] The time elapsed from the tip incision to the stoppage of bleeding was determined as the bleeding time. The preferred compounds, aspirin (30 mg/kg) or vehicle was given orally 60 min prior to the tail incision in a group of 5 mice each.

bleeding time, standard drugs [9] | Structure (SMILES) | platelet adhesion (ex vivo) over collagen surface [1] | ADP induced whole blood platelet aggregation [2] | time to occlusion (TTO) [3] | collagen induced whole blood platelet aggregation [4] | collagen induced whole blood platelet aggregation ([4]; listed as Aspirin) | time to occlude the carotid artery (TTO) [5] | thrombin induced whole blood platelet aggregation [6] | platelet adhesion over collagen coated surface [7] | thrombus weight [8] | ADP induced whole blood platelet aggregation ([2]; listed as Clopidogrel)
significantly prolonged | CC(=O)Oc1ccccc1C(=O)O [aspirin, reference compound] | did not exhibit any inhibitory effect | can only inhibit ADP and Thrombin | significantly prolonged | but not collagen induced aggregation | reduced platelet aggregation in response to collagen | remained ineffective | can only inhibit ADP and Thrombin | no alteration | significantly reduced | –
– | COC(=O)[C@H](c1ccccc1Cl)N1CCc2sccc2C1 [clopidogrel, reference compound] | – | can only inhibit ADP induced aggregation | significantly prolonged | inhibited ADP and collagen induced platelet aggregation | – | – | – | significant reduction | significantly reduced | inhibited ADP and collagen induced platelet aggregation
